Article PMC10534582, “A Pharmacokinetic Study of Sixteen Major Bioactive Components of Jinshui-Huanxian Granules in Pulmonary Fibrosis Model and Control Rats Using Orbitrap Fusion Mass Spectrometry” (Molecules, 2023)
Like-named read-outs stand apart in the source and are kept apart here.

Columns and labels:
[1] = Pharmacokinetics of JHG components in pulmonary fibrosis (PF) model rats after intragastric administration of JHGs (plasma, Orbitrap Fusion MS); type: in vivo, Sprague Dawley (SD) rats; conditions: for Cmax, PF model group compared with the control group: medium dose selected for comparison; for AUCs, PF model group compared with the control group: p < 0.05; for Tmax / half-life / MRT last / Cmax / AUC(0-inf) / AUC(0-t) / MRT inf: male, rat, plasma, po; for pharmacokinetic process (versus dosage): low, medium, high doses of JHGs; for MRT last: read-out: MRT(0-t); for Cmax: intragastric JHGs; for MRT inf: read-out: MRT(0-∞)
Protocol: Healthy male Sprague Dawley (SD) rats of SPF grade (240 ± 20 g) were purchased from Sipeifu (Beijing, China) Biotechnology Co., Ltd. (Beijing, China), Certificate of Conformity No.: SCYK (Beijing, China) 2019-0015, Animal Quality Certificate No.: 110324220102348616. They were housed in the Animal Center of Henan University of Traditional Chinese Medicine, which passed the ethical audit, ethics number: DWLL202208003, breeding Co. 24 °C, relative humidity 50 ± 2%. The animals fasted for 12 h before the experiment and drank water freely. All feeding and experimental studies on experimental animals were in accordance with the regulations on the Management of Experimental Animals in Henan Province.
The PF model in rats was replicated by reference to the conclusion tracheal intubation method in the literature. After the rats were anesthetized, bleomycin (BLM) (5 mg/kg) was used as an induction agent and followed the tracheal intubation method. BLM solution was aspirated with a 1 mL syringe and injected into the indwelling syringe. A total of 0.3 mL of air was rapidly pushed into the syringe, the rats were immediately stroked upright so that the BLM solution was evenly distributed in both lungs. BLM was given on day 0 for modeling, then gavage was taken after day 28, with fasting without water for 12 h before sampling. The histopathological examination was performed to verify the construction of the PF model. The rats were anesthetized by the abdominal cavity, then the lung tissues were violently shocked by opening the chest, and the right lower lobe of the lung was taken and fixed in 4% formaldehyde solution, then dehydrated by sucrose gradient, paraffin-embedded, and sectioned. H&E and Masson staining were performed to observe the degree of alveolitis of lung tissue and the degree of pulmonary fibrosis, respectively. The inflammation and fibrosis of lung tissues was observed under the light microscope.
Twenty-four healthy male SD rats or PF model rats, weighing 240 ± 20 g, fasted for 12 h before the experiment and drank water freely. Both kinds of rats were randomly divided into four groups. Blank group: equal dose of water by intragastric, low dose; administration group: rats were given the equivalent human dose of JHGs by intragastric, i.e., 10.8 g of raw drug/kg/d (5.70 g/kg/d); medium-dose administration group: 2 times the human equivalent dose of JHGs by intragastric, i.e., 21.6 g of raw drug/kg/d (11.41 g/kg/d); high-dose administration group: 4 times the human equivalent dose of JHG, i.e., 43.2 g of raw drug/kg/d (22.81 g/kg/d). Blood was collected from the tail vein before and 0.083, 0.25, 0.5, 0.75, 1, 1.5, 2, 3, 4, 6, 8, 12, 18, and 24 h after dosing, respectively. A total of 0.5 mL was placed in a heparin sodium centrifuge tube. Whole blood was left for 30 min and then centrifuged in a low-temperature freezing centrifuge (4 °C, 3000 r/min) for 15 min. The upper layer of plasma was collected and stored in a refrigerator at −80 °C.
We added 50 μL of internal standard solution and 800 μL of methanol, shook for 15 min, then centrifuged at 12,000 r/min for 10 min, took the supernatant, dried in a centrifuge concentrator, added 50 μL of the initial mobile phase to the residue, dissolved, centrifuged, then separated the upper layer of the solution used as the test solution. A total of 5 μL test solution was taken into the sample for analysis. For each compound with a certain dosage, the same procedure is repeated six times in parallel. The concentration in plasma was calculated by the internal standard method.
Accucore C18 (100 mm × 2.1 mm, 2.6 μm) column at 25 °C, the mobile phase was methanol (A)-0.1% formic acid aqueous solution (B). The gradient elution program was 0–4 min (65% B-40% B), 4–5 min (40% B-40% B), 5–6 min (40% B-28% B), and 6–7 min (28% B-19% B), 7–7.5 min (19% B-10% B), 7.5–11 min (10% B-0% B), the flow rate was 0.2 mL/min, and the injection volume was 5 μL. […]

[2] = after oral administration; cited from earlier work
[3] = Sprague-Dawley, PF model rats, after administration of JHGs, read-out: Tmax of all dosages
[4] = PF model rats, JHGs high dose 22.81 g/kg/d
[5] = PF model rats, JHGs low dose 5.70 g/kg/d
[6] = PF model rats, JHGs medium dose 11.41 g/kg/d
[7] = Sprague Dawley, 5.7 g/kg/day, PF model rats, JHGs low dose 5.70 g/kg/d
[8] = Sprague Dawley, 5.7 g/kg/day, PF model rats, JHGs low dose 5.70 g/kg/d, read-out: Tmax
[9] = Sprague Dawley, 5.7 g/kg/day, PF model rats, low dose 5.70 g/kg/d, n=6 (1st of 3 stacked values)
[10] = Sprague Dawley, 11.41 g/kg/day, PF model rats, JHGs medium dose 11.41 g/kg/d
[11] = Sprague Dawley, 11.41 g/kg/day, PF model rats, JHGs medium dose 11.41 g/kg/d, read-out: Tmax
[12] = Sprague Dawley, 11.41 g/kg/day, PF model rats, medium dose 11.41 g/kg/d, n=6 (2nd of 3 stacked values)
[13] = Sprague Dawley, 22.81 g/kg/day, PF model rats, JHGs high dose 22.81 g/kg/d
[14] = Sprague Dawley, 22.81 g/kg/day, PF model rats, JHGs high dose 22.81 g/kg/d, read-out: Tmax
[15] = Sprague-Dawley, 5.7 g/kg/day, PF model rats, JHGs low dose 5.70 g/kg/d
[16] = Sprague-Dawley, 11.41 g/kg/day, PF model rats, JHGs medium dose 11.41 g/kg/d
[17] = Sprague-Dawley, 22.81 g/kg/day, PF model rats, JHGs high dose 22.81 g/kg/d
[18] = Sprague-Dawley, 22.81 g/kg/day, PF model rats, high dose 22.81 g/kg/d, n=6 (3rd of 3 stacked values)

O=c1cc(-c2ccc(O)cc2)oc2cc(OC3OC(CO)C(O)C(O)C3O)cc(O)c12 (stereo not shown) [Apigenin-7-glucoside]
Tmax, PF model group compared with the control group ([1]; PF model vs control rats): decreased significantly | Cmax, PF model group compared with the control group ([1]; PF model vs control rats): significantly decreased | AUCs, PF model group compared with the control group ([1]; PF model vs control rats): significantly decreased | Tmax [1, 3]: ≤ 2 h

O=c1cc(-c2ccc(O)c(O)c2)oc2cc(O[C@@H]3O[C@H](CO)[C@@H](O)[C@H](O)[C@H]3O)cc(O)c12 [Cynaroside]
Cmax and AUCs (AUC(0–t), AUC (0–∞)) compared among the analytes ([1]; PF model rats): highest | correlation between CL, AUC, t½, and dose ([1]; PF model rats): there was a correlation | pharmacokinetic process (versus dosage) ([1]; PF model rats): linear pharmacokinetic process | AUC(0–t) in the model group relative to the control group ([1]; PF model vs control rats): approximately twice as high | Cmax in the model group relative to the control group ([1]; PF model vs control rats): approximately twice as high

COc1ccc(-c2cc(=O)c3c(OC)c(OC)c(OC)c(OC)c3o2)cc1OC [Nobiletin]
Clearances [1, 4]: 1307 ± 264.2 mL/min/kg | Vss [1, 4]: 864 ± 195.9 L | Clearances [1, 5]: 119 ± 11.8 mL/min/kg | Vss [1, 5]: 166.86 ± 26.65 L | Clearances [1, 6]: 327.5 ± 83.7 mL/min/kg | Vss [1, 6]: 769.75 ± 168.2 L | half-life [1, 7]: 17.6 ± 1.82 h | MRT last [1, 7]: 8.86 ± 0.2 h | Tmax [1, 8]: 0.75 h | Cmax [1, 9]: 2.97 ± 0.67 ng/mL | half-life [1, 10]: 31.5 ± 13.3 h | MRT last [1, 10]: 9.13 ± 0.25 h | Tmax [1, 11]: 0.75 h | Cmax [1, 12]: 3.37 ± 0.53 ng/mL | half-life [1, 13]: 9.59 ± 3.39 h | Tmax [1, 14]: 0.75 h | AUC(0-inf) [1, 15]: 33.4 ± 4.41 ng·h/mL | AUC(0-t) [1, 15]: 21.6 ± 3.48 ng·h/mL | MRT inf [1, 15]: 23.2 ± 2.12 h | AUC(0-inf) [1, 16]: 43.1 ± 11.1 ng·h/mL | AUC(0-t) [1, 16]: 20 ± 2.62 ng·h/mL | MRT inf [1, 16]: 41.8 ± 18.4 h | AUC(0-inf) [1, 17]: 18 ± 3.39 ng·h/mL | AUC(0-t) [1, 17]: 15.5 ± 2.99 ng·h/mL | MRT last [1, 17]: 6.66 ± 0.35 h | MRT inf [1, 17]: 11.1 ± 1.44 h | Cmax [1, 18]: 3.57 ± 0.3 ng/mL | Tmax [1, 3]: ≤ 2 h

COc1ccc(C(C)=O)c(O)c1 [Paeonol]
bioavailability in vivo [2]: poor | Clearances [1, 4]: 4714 ± 1513 mL/min/kg | Vss [1, 4]: 12017.41 ± 3866.6 L | Clearances [1, 5]: 1560 ± 427.7 mL/min/kg | Vss [1, 5]: 2980.29 ± 449.33 L | Clearances [1, 6]: 5269.7 ± 1130 mL/min/kg | Vss [1, 6]: 8115.77 ± 895.52 L | Cmax, PF model group compared with the control group ([1]; PF model vs control rats): significantly decreased | AUCs, PF model group compared with the control group ([1]; PF model vs control rats): significantly decreased | half-life [1, 7]: 25.5 ± 8.84 h | MRT last [1, 7]: 9.14 ± 0.1 h | Tmax [1, 8]: 0.5 h | Cmax [1, 9]: 2.79 ± 0.6 ng/mL | half-life [1, 10]: 19.2 ± 6.63 h | MRT last [1, 10]: 9.7 ± 0.37 h | Tmax [1, 11]: 0.75 h | Cmax [1, 12]: 3.16 ± 0.22 ng/mL | half-life [1, 13]: 36.4 ± 25.6 h | Tmax [1, 14]: 3 h | AUC(0-inf) [1, 15]: 41.8 ± 12.1 ng·h/mL | AUC(0-t) [1, 15]: 21.8 ± 2.86 ng·h/mL | MRT inf [1, 15]: 33.8 ± 11.4 h | AUC(0-inf) [1, 16]: 41.6 ± 9.78 ng·h/mL | AUC(0-t) [1, 16]: 24.5 ± 2.15 ng·h/mL | MRT inf [1, 16]: 26.9 ± 8.95 h | AUC(0-inf) [1, 17]: 83.4 ± 34.3 ng·h/mL | AUC(0-t) [1, 17]: 35 ± 1.86 ng·h/mL | MRT last [1, 17]: 9.41 ± 0.4 h | MRT inf [1, 17]: 49.6 ± 33.3 h | Cmax [1, 18]: 3.63 ± 0.33 ng/mL | Tmax [1, 3]: ≤ 2 h

CC1=C2CC3C(CC(=O)C4CC(O)CCC43C)C2CCC12OC1CC(C)CNC1C2C (stereo not shown) [Peimisine]
Clearances [1, 4]: 5.83 ± 1 mL/min/kg | Vss [1, 4]: 4.24 ± 0.61 L | Clearances [1, 5]: 2.33 ± 0.33 mL/min/kg | Vss [1, 5]: 1.62 ± 0.32 L | Clearances [1, 6]: 4.33 ± 0.83 mL/min/kg | Vss [1, 6]: 2.91 ± 0.52 L | pharmacokinetic process (versus dosage) ([1]; PF model rats): linear pharmacokinetic process | MRT(0–t), PF model group compared with the control group ([1]; PF model vs control rats): decreased | half-life [1, 7]: 7.2 ± 0.28 h | MRT last [1, 7]: 7.56 ± 0.17 h | Tmax [1, 8]: 1.5 h | Cmax [1, 9]: 2.05 ± 0.49 ng/mL | half-life [1, 10]: 8.25 ± 0.94 h | MRT last [1, 10]: 7.92 ± 0.2 h | Tmax [1, 11]: 3.67 ± 0.58 h | Cmax [1, 12]: 2.51 ± 0.55 ng/mL | half-life [1, 13]: 5.96 ± 0.23 h | Tmax [1, 14]: 8 h | AUC(0-inf) [1, 15]: 14.6 ± 2.48 ng·h/mL | AUC(0-t) [1, 15]: 12.3 ± 2.23 ng·h/mL | MRT inf [1, 15]: 11.8 ± 0.51 h | AUC(0-inf) [1, 16]: 26.8 ± 5.8 ng·h/mL | AUC(0-t) [1, 16]: 23.4 ± 5.01 ng·h/mL | MRT inf [1, 16]: 11.4 ± 1.05 h | AUC(0-inf) [1, 17]: 33.1 ± 6.82 ng·h/mL | AUC(0-t) [1, 17]: 29.7 ± 5.82 ng·h/mL | MRT last [1, 17]: 9.84 ± 0.24 h | MRT inf [1, 17]: 12.2 ± 0.39 h | Cmax [1, 18]: 2.76 ± 0.48 ng/mL
